From US20110189306A1, “COMPOUNDS, COMPOSITIONS AND TREATMENTS FOR V-ATPase RELATED DISEASES” (priority 2010, published 2011)
Entries after “also recorded” stand apart in the source; their conditions may differ.

Experiments:
[1] = molecular target: TRX-NTa3 fusion protein (TRX-G2-NTa3(1-393)), N-terminal domain of mouse V-ATPase subunit a3 fused to thioredoxin (mouse); assay: ELISA saturation curve, plate coated with TRX-NTa3, GST-B1 as analyte; apparent Kd from half-maximal binding
[2] = molecular target: TRX-NTa3 fusion protein (TRX-G2-NTa3(1-393)), N-terminal domain of mouse V-ATPase subunit a3 fused to thioredoxin (mouse); assay: ELISA saturation curve, plate coated with TRX-NTa3, GST-B2 as analyte; apparent Kd from half-maximal binding
[3] = molecular target: TRX-NTa3 fusion protein (TRX-G2-NTa3(1-393)), N-terminal domain of mouse V-ATPase subunit a3 fused to thioredoxin (mouse); assay: ELISA, plate coated with TRX-NTa3, GST-NTB2 as analyte; apparent Kd
[4] = molecular target: TRX-NTa3 fusion protein (TRX-G2-NTa3(1-393)), N-terminal domain of mouse V-ATPase subunit a3 fused to thioredoxin (mouse); assay: ELISA, plate coated with TRX-NTa3, GST-NTB2 against GST-B2(GH)
[5] = tested on: RAW 264.7 cells; assay: TRAP staining analysis (qualitative and cell counts) of RANKL-mediated differentiation and fusion; format: cell-based, mouse; details: for effect on osteoclast formation, differentiation and fusion (in words): at 1.25 μM / at a concentration efficacious in inhibiting acid secretion, where stated
Experimental: The concentration range of compound tested was from 0.6 to 40 μM, as follows (in μM): a, control, vehicle only; b, 0.63; c, 1.25; d, 2.5; e, 5.0; f, 10; g, 20; h, 40. […] The latter observation is consistent with the conclusion of the protein assay of FIG. 7.
Plotted are cell counts for multinucleated cells with greater than 3 nuclei after treatment with compound KM91104. This figure confirms the qualitative conclusion of FIG. 10 that there is a drop off in the number of larger osteoclasts above 1.25 μM concentration.

[6] = tested on: undifferentiated RAW 264.7 cells; assay: Protein assay on cell cultures (effect on cellular growth); format: cell-based, mouse; details: for effect on cell growth, metabolic activity, cytotoxicity (in words): at 1.25 μM / at a concentration efficacious in inhibiting acid secretion; for concentration that did not significantly affect cell growth / total protein: undifferentiated RAW 264.7 cells, 0.3 to 40 μM tested, n=3
Experimental: Concentration range of compound tested was from 0.3 to 40 μM, as indicated (n=3, error bars are +/−SD). […] C indicates control, vehicle only added. The test cell line was undifferentiated RAW 264.7 cells.

[7] = tested on: undifferentiated RAW 264.7 cells; assay: MTT assay to determine cytotoxicity; format: cell-based, mouse
Experimental: The concentration range of compound tested was from 0.3 to 40 μM, as indicated (n=3). Yellow MTT is converted to purple formazan by mitochondrial reductases. Formazan is measured spectrophotometrically to deduce metabolic activity of test cells. Reduced metabolic activity indicates metabolic dysfunction due to cytotoxicity. In this case, significant cytotoxicity is not seen up to 2.5 μM KM91104 concentration. C indicates control, vehicle only added. The test cell line was undifferentiated RAW 264.7 cells.

[8] = tested on: RAW 264.7 cells; assay: Total solubilized TRAP assay of RANKL-mediated differentiation; format: cell-based, mouse; details: 3 days of growth with RANKL, 0.3 to 40 μM tested
Experimental: The concentration range of compound tested was from 0.3 to 40 μM, as indicated (see Materials and Methods). C indicates control, vehicle only added. TRAP is a marker for osteoclast differentiation and will convert colorless p-nitrophenylphosphate to yellow nitrophenol under acidic conditions. The yellow color is quantified spectrophotometrically and indicates degree of differentiation after 3 days of growth with RANKL.

[9] = tested on: RANKL-differentiated RAW 264.7 cells; assay: Hydroxyapatite resorption on Corning Osteo-Assay Surface plates; format: cell-based, mouse; details: for acid secretion of osteoclasts (in words): murine osteoclasts
Experimental: RAW 264.7 cells (American Type Culture Collection (ATCC), cat. no. TIB-71) were differentiated in the presence of 100 ng/ml RANKL on synthetic mineralized surfaces of Corning Osteo-Assay Surface 96-well plates (Corning Inc. Life Sciences, Lowell, Mass.; cat. no. 3988XX1). Cells were cultured for 5 days in 200 μl α-MEM (Grand Island Biological Co. (GIBCO)/Invitrogen Corp. cat. no. 12571-063) with 10% fetal bovine serum (FBS; (GIBCO/Invitrogen) cat. no. 10437-028, Lot 1233072). Exposure of cells to RANKL and KM91104 was continuous throughout the experiment. The complete medium was changed on the third day. On day 5, cells were removed using 3% sodium hypochlorite solution. Plates were air dried and then imaged using digital brightfield photomicrography (Leica DM IRE2 with OpenLab software, Leica Microsystems, Richmond Hill, Canada). Image analysis was carried out with NIH ImageJ software (National Institutes of Health, Bethesda, Md.). Concentrations of KM91104 (μM) in medium were as follows: a, control, vehicle only; b, 0.63; c, 1.25; d, 2.5; e, 5.0; f, 10; g, 20; h, 40.
The concentration range of KM91104 tested was from 0.3 to 40 μM, as indicated (see Materials and Methods). C indicates control, vehicle only added. […] Error bars indicate +/−SD (n=3).
Bone resorption (FIGS. 13 and 14) was assayed using the following method. RAW 264.7 cells were differentiated on synthetic mineralized surfaces in 96 well Corning Osteo Assay Surface plates with 100 ng/ml RANK ligand. Wells were simultaneously treated with the lead compound. Cells were cultured for 5 days in […] of α-MEM. The complete medium was changed on the third day. On day 5, cells were removed using 50% bleach solution. Plates were dried and imaged using digital brightfield photomicrograpy. Image analysis was carried out using ImageJ.

[10] = tested on: mouse bone marrow-derived macrophages (BMM); assay: TRAP staining of osteoclasts RANKL-differentiated from bone marrow-derived macrophages; format: cell-based; details: 1.25 μM
Experimental: Panels show: a, control, vehicle only; b and c are duplicates with 1.25 μM KM91104.

[11] = molecular target: TRX-NTa3 fusion protein (TRX-G2-NTa3(1-393)), N-terminal domain of mouse V-ATPase subunit a3 fused to thioredoxin (mouse); assay: ELISA, plate coated with TRX-NTa3, GST-CTB2 as analyte; apparent Kd

GST-B1(GH) fusion protein (GST-G2-B1(1-513)-G2H6G2), full length mouse V-ATPase subunit B1 fused to glutathione-S-transferase (from UniProt Q91YH6)
Kd [1]: 2.3 nM

GST-B2(GH) fusion protein (GST-G2-B2(1-511)-G2H6G2), full length mouse V-ATPase subunit B2 fused to glutathione-S-transferase
Kd [2]: 2.4 nM

GST-NTB2 fusion protein (GST-G2-B2(1-112)), N-terminal domain of mouse V-ATPase subunit B2 fused to glutathione-S-transferase
Kd [3]: 230 nM | fold reduction of binding against the full-length B2 subunit [4]: 60 fold

O=C(N/N=C/c1ccccc1O)c1ccc(O)c(O)c1 [KM91104, 3,4-dihydroxy-N′-(2-hydroxybenzylidene)benzohydrazide]
concentration above which osteoclast size / number of larger osteoclasts (>3 nuclei) is reduced (fusion impaired) ([5]; RANKL-differentiated RAW 264.7, 0.6 to 40 μM tested): above 1.25 μM | TRAP staining of cells ([5]; all concentrations, 0.63 to 40 μM): essentially all cells stain for TRAP | effect on osteoclast formation, differentiation and fusion (in words) [5]: does not affect osteoclast differentiation or fusion to form large osteoclasts | effect on osteoclast formation, differentiation and fusion (in words) ([5]; listed as lead compound): limited effect on their ability to differentiate or undergo fusion | effect on osteoclast formation, differentiation and fusion (in words) ([5]; listed as the compound): little effect on osteoclast formation and differentiation | cell density ([5]; highest concentration (40 μM)): reduction of cell density | concentration that does not affect osteoclast fusion ([5]; summary of FIGS. 10 and 11): < 5 µM | effect on cell growth, metabolic activity, cytotoxicity (in words) [6]: does not affect cell growth or cause cytotoxicity | effect on cell growth, metabolic activity, cytotoxicity (in words) ([6]; listed as lead compound): no discernable effect on growth or metabolic activity | concentration that did not significantly affect cell growth / total protein [6]: up to 20 μM | concentration that did not significantly affect cell growth / total protein ([6]; listed as lead compound): < 20 µM | toxicity (in words) ([7]; murine RAW264.7 cells): low toxicity | concentration up to which significant cytotoxicity is not seen (MTT) ([7]; undifferentiated RAW 264.7 cells, 0.3 to 40 μM tested, n=3): up to 2.5 μM | concentration up to which differentiation / mature osteoclast formation is not appreciably affected (TRAP) [8]: up to 20 μM | concentration up to which differentiation / mature osteoclast formation is not appreciably affected (TRAP) ([8]; listed as lead compound): < 20 µM | IC50 ([9]; Mus musculus, RAW264.7, 120 h, 5 days, continuous exposure to RANKL and compound, image analysis of resorption areas, n=3, read-out: concentration for approximately half-maximal inhibition of resorption): ~1250 nM | effect on resorption (in words) ([9]; in vitro, synthetic mineralized surface, listed as lead compound): inhibited resorption without affecting osteoclast formation; also recorded: prevents bone resorption in vitro | reduction in resorption ([9]; lowest concentration tested (range 0.3 to 40 μM)): Highly significant reduction in resorption | acid secretion of osteoclasts (in words) ([9]; listed as lead compound): inhibits acid secretion | acid secretion of osteoclasts (in words) ([9]; listed as the compound): significantly reduced acid secretion | formation / maturation of large BMM-derived osteoclasts [10]: does not significantly affect the formation of large osteoclasts | formation / maturation of large BMM-derived osteoclasts ([10]; listed as lead compound): does not affect BMM derived osteoclast maturation

GST-CTB2 fusion protein (GST-G2-B2(148-511)), C-terminal domain of mouse V-ATPase subunit B2 fused to glutathione-S-transferase
Kd [11]: 4.1 nM
